# US8361487B1, “Ant controllers and method for application thereof” (BASF Aktiengesellschaft, priority 1999, dated 2013)
# Tested on: Coptotermes formosanus Shiraki
# Assay: Test Example 1: termite-killing test on treated filter paper
# Assay type: in vivo
# Settings: mortality class; 1 ml of a 500 ppm solution on filter paper, seven days after inoculation, triplicate group of 10 insects
# Protocol: A filter paper was spread in a glass dish having a diameter of 9 cm, onto which was dropped 1 ml of a 500 ppm solution of the ant controller of the present invention. Then, the filter paper was inoculated with Coptotermes formosanus Shiraki. Seven days after the inoculation, percentage of dead insects was investigated, from which mortality was calculated. The test was carried out with triplicate group of 10 insects.
row,Structure (SMILES),Termite-killing effect
1,Cc1cccc(N(Cc2ccc(C#N)cc2)NCC(=O)Nc2ccc(OC(F)(F)F)cc2)c1 [Compound 156],B (99-90)
2,N#Cc1ccc(CC(=NNC(=O)Nc2ccc(Cl)cc2)c2cccc(C(F)(F)F)c2)cc1 [Compound 83],D (79-50)
3,N#Cc1ccc(CN(NCC(=O)Nc2ccc(OC(F)(F)F)cc2)c2cccc(F)c2)cc1 [Compound 154],B (99-90)
4,O=C(NNC(Cc1ccccc1)c1ccccc1)Nc1ccc(Cl)cc1 (racemic) [Compound 84],A (100)
5,Cc1cccc(N(Cc2ccc(C#N)cc2)N=CC(=O)Nc2ccc(OC(F)(F)F)cc2)c1 [Compound 137],A (100)
6,CC(C)COC(C(=NNC(=O)Nc1ccc(Cl)cc1)c1ccccc1)c1ccccc1 (racemic) [Compound 70],A (100)
7,N#Cc1ccc(CC(c2cccc(Cl)c2)N(NC(=O)Nc2ccc(OC(F)(F)F)cc2)C(=O)c2ccccc2)cc1 (stereo not drawn) [Compound 102],A (100)
8,N#Cc1ccc(CC(=NNC(=O)Nc2ccc([S+]([O-])C(F)(F)F)cc2)c2cccc(Br)c2)cc1 (stereo not drawn) [Compound 29],C (89-80)
9,O=C(C=NN(Cc1ccccc1)c1ccccc1)Nc1ccc(OC(F)(F)F)cc1 [Compound 122],D (79-50)
10,N#Cc1ccc(CN(NCC(=O)Nc2ccc(OC(F)(F)F)cc2)c2cccc(Cl)c2)cc1 [Compound 152],B (99-90)
11,CCNC(=O)N(NC(=O)Nc1ccc(OC(F)(F)F)cc1)C(Cc1ccc(C#N)cc1)c1cccc(Cl)c1 (stereo not drawn) [Compound 103],A (100)
12,N#Cc1ccc(CC(=NNC(=O)Nc2ccc(Cl)cc2)c2cccc(Br)c2)cc1 [Compound 26],A (100)
13,N#Cc1ccc(CC(NNC(=O)Nc2ccc(OC(F)(F)F)cc2)c2cccc(Br)c2)cc1 (stereo not drawn) [Compound 95],A (100)
14,CC(C(=NNC(=O)Nc1ccc(Cl)cc1)c1cccc(Cl)c1)c1ccc(C#N)cc1 (stereo not drawn) [Compound 55],A (100)
15,O=C(NNC(Cc1ccc(Cl)cc1)c1cccc(F)c1)Nc1ccc(OC(F)(F)F)cc1 (racemic) [Compound 89],B (99-90)
16,CC(C(=NNC(=O)Nc1ccc(OC(F)(F)F)cc1)c1ccccc1)c1ccccc1 (stereo not drawn) [Compound 52],A (100)
17,O=C(NNC(Cc1ccc(Cl)cc1)c1ccccc1)Nc1ccc(OC(F)(F)F)cc1 (racemic) [Compound 86],A (100)
18,"N#Cc1ccc(CC(NNC(=O)Nc2ccc(OC(F)(F)F)cc2)c2cccc(C(F)(F)F)c2)cc1 (single isomer, unassigned) [Compound 117]",A (100)
19,N#Cc1ccc(CN(NCC(=O)Nc2ccc(Cl)cc2)c2cccc(Cl)c2)cc1 [Compound 151],C (89-80)
20,O=C(NN=C(Cc1ccc(Cl)cc1)c1cccc(F)c1)Nc1ccc(Cl)cc1 [Compound 34],A (100)
21,O=C(NNC(Cc1ccc(F)cc1)c1ccccc1)Nc1ccc(OC(F)(F)F)cc1 (stereo not drawn) [Compound 109],C (89-80)
22,FC(F)(F)Oc1ccc(NC(=S)NNC(Cc2ccc(Cl)cc2)c2ccccc2)cc1 (stereo not drawn) [Compound 98],A (100)
23,CC(C(=NNC(=O)Nc1ccc(OC(F)(F)F)cc1)c1cccc(Cl)c1)c1ccc(C#N)cc1 (stereo not drawn) [Compound 56],A (100)

row,Structure (SMILES),Termite-killing effect
1,Cc1cccc(C(Cc2ccc(C#N)cc2)=NNC(=O)Nc2ccc(OC(F)(F)F)cc2)c1 [Compound 41],A (100)
2,O=C(NN=C(Cc1ccccc1)c1cccc(C(F)(F)F)c1)Nc1ccc(Cl)cc1 [Compound 42],A (100)
3,CC(C(=NNC(=O)Nc1ccc(Cl)cc1)c1ccccc1)c1ccccc1 (racemic) [Compound 64],A (100)
4,O=C(NN=C(Cc1ccc(Cl)cc1)c1cccc(Cl)c1)Nc1ccc(OC(F)(F)F)cc1 [Compound 16],C (89-80)
5,N#Cc1ccc(CC(NNC(=O)Nc2ccc([S+]([O-])C(F)(F)F)cc2)c2cccc(Cl)c2)cc1 (stereo not drawn) [Compound 93],D (79-50)
6,N#Cc1ccc(CC(=NNC(=O)Nc2ccc(S(=O)(=O)C(F)(F)F)cc2)c2cccc(Cl)c2)cc1 [Compound 23],A (100)
7,O=C(NN=C(Cc1ccc([N+](=O)[O-])cc1)c1ccccc1)Nc1ccc(SC(F)(F)F)cc1 [Compound 14],A (100)
8,CC(C)COC(C(=NNC(=O)Nc1ccc(OC(F)(F)F)cc1)c1ccccc1)c1ccccc1 (racemic) [Compound 71],A (100)
9,N#Cc1ccc(CC(=NNC(=O)Nc2ccc(Cl)cc2)c2cccc(Cl)c2)cc1 [Compound 17],A (100)
10,O=C(NN=C(Cc1ccc([N+](=O)[O-])cc1)c1ccccc1)Nc1ccc(OC(F)(F)F)cc1 [Compound 12],A (100)
11,CC(C(=NNC(=O)Nc1ccc(Cl)cc1)c1ccccc1)c1ccccc1 (stereo not drawn) [Compound 48],A (100)
12,O=C(NN=C(Cc1ccccc1)c1ccccc1)Nc1ccc(OC(F)(F)F)cc1 [Compound 2],B (99-90)
13,CN(N=C(c1ccccc1)C(O)c1ccccc1)C(=O)Nc1ccc(Cl)cc1 (racemic) [Compound 74],A (100)
14,O=C(NN=C(Cc1ccccc1)c1ccccc1)Nc1ccc(Cl)cc1 [Compound 1],A (100)
15,O=[N+]([O-])c1ccc(CC(=NNC(=S)Nc2ccc(Cl)cc2)c2ccccc2)cc1 [Compound 11],A (100)
16,O=C(C=NN(Cc1ccc(Cl)cc1)c1cccc(Cl)c1)Nc1ccc(Cl)cc1 [Compound 126],A (100)
17,O=C(CNN(Cc1ccccc1)c1ccccc1)Nc1ccc(OC(F)(F)F)cc1 [Compound 143],C (89-80)
18,N#Cc1ccc(CC(=NNC(=O)Nc2ccc(Cl)cc2)c2ccccc2)cc1 [Compound 5],A (100)
19,N#Cc1ccc(CN(N=CC(=O)Nc2ccc(Cl)cc2)c2ccccc2)cc1 [Compound 124],D (79-50)
20,O=C(C=NN(Cc1ccc([N+](=O)[O-])cc1)c1cccc(Cl)c1)Nc1ccc(OC(F)(F)F)cc1 [Compound 129],A (100)
21,N#Cc1ccc(CC(=NNC(=O)Nc2ccc(SC(F)(F)F)cc2)c2cccc(C(F)(F)F)c2)cc1 [Compound 80],A (100)
22,O=[N+]([O-])c1ccc(CC(=NNC(=S)Nc2ccc(OC(F)(F)F)cc2)c2ccccc2)cc1 [Compound 13],A (100)
23,CC(C(=NNC(=O)Nc1ccc(Cl)cc1)c1ccccc1)c1ccc(Cl)cc1 (stereo not drawn) [Compound 53],B (99-90)

row,Structure (SMILES),Termite-killing effect
1,N#Cc1ccc(CC(NNC(=O)Nc2ccc(OC(F)(F)F)cc2)c2cccc(F)c2)cc1 (stereo not drawn) [Compound 114],B (99-90)
2,O=C(NNC(Cc1ccccc1)c1ccccc1)Nc1ccc(OC(F)(F)F)cc1 (racemic) [Compound 85],C (89-80)
3,O=C(NNC(Cc1ccc(Br)cc1)c1ccccc1)Nc1ccc(Cl)cc1 (stereo not drawn) [Compound 110],B (99-90)
4,COC(C(=NNC(=O)Nc1ccc(OC(F)(F)F)cc1)c1ccccc1)c1ccccc1 (racemic) [Compound 67],A (100)
5,N#Cc1ccc(CN(NCC(=O)Nc2ccc(Cl)cc2)c2ccccc2)cc1 [Compound 145],A (100)
6,O=C(CNN(Cc1ccc(Cl)cc1)c1cccc(Cl)c1)Nc1ccc(OC(F)(F)F)cc1 [Compound 148],A (100)
7,Cc1cccc(C(Cc2ccccc2)=NNC(=O)Nc2ccc(Cl)cc2)c1 [Compound 38],B (99-90)
8,O=C(CNN(Cc1ccc([N+](=O)[O-])cc1)c1cccc(Cl)c1)Nc1ccc(OC(F)(F)F)cc1 [Compound 150],C (89-80)
9,CC(C(=NNC(=O)Nc1ccc(Br)cc1)c1ccccc1)c1ccccc1 (stereo not drawn) [Compound 49],C (89-80)
10,CC(C)OC(C(=NNC(=O)Nc1ccc(Cl)cc1)c1ccccc1)c1ccccc1 (racemic) [Compound 68],A (100)
11,O=C(NN=C(c1ccccc1)C(O)c1ccc(Cl)cc1)Nc1ccc(Cl)cc1 (stereo not drawn) [Compound 59],C (89-80)
12,N#Cc1ccc(CC(NNC(=O)Nc2ccc(OC(F)(F)F)cc2)c2cccc(Cl)c2)cc1 (stereo not drawn) [Compound 91],A (100)
13,N#Cc1ccc(CN(NCC(=O)Nc2ccc(OC(F)(F)F)cc2)c2ccccc2)cc1 [Compound 146],D (79-50)
14,N#Cc1ccc(CN(N=CC(=O)Nc2ccc(OC(F)(F)F)cc2)c2cccc(Cl)c2)cc1 [Compound 131],C (89-80)
15,O=C(NNC(Cc1ccc([N+](=O)[O-])cc1)c1ccccc1)Nc1ccc(OC(F)(F)F)cc1 (racemic) [Compound 88],A (100)
16,CC(=O)OC(C(=NNC(=O)Nc1ccc(OC(F)(F)F)cc1)c1ccccc1)c1ccccc1 (racemic) [Compound 72],A (100)
17,N#Cc1ccc(C(O)C(=NNC(=O)Nc2ccc(OC(F)(F)F)cc2)c2ccccc2)cc1 (racemic) [Compound 63],A (100)
18,O=C(NN=C(Cc1ccc(Cl)cc1)c1cccc(F)c1)Nc1ccc(OC(F)(F)F)cc1 [Compound 33],C (89-80)
19,N#Cc1ccc(CC(NNC(=O)Nc2ccc([S+]([O-])C(F)(F)F)cc2)c2cccc(C(F)(F)F)c2)cc1 (stereo not drawn) [Compound 119],A (100)
20,O=C(NN=C(Cc1ccccc1)c1cccc(Br)c1)Nc1ccc(Cl)cc1 [Compound 24],C (89-80)
21,N#Cc1ccc(CC(NNC(=O)Nc2ccc(SC(F)(F)F)cc2)c2cccc(F)c2)cc1 (stereo not drawn) [Compound 115],A (100)
22,N#Cc1ccc(CN(N=CC(=O)Nc2ccc([S+]([O-])C(F)(F)F)cc2)c2cccc(Cl)c2)cc1 (stereo not drawn) [Compound 133],A (100)
23,O=C(NNC(Cc1ccc(Br)cc1)c1ccccc1)Nc1ccc(OC(F)(F)F)cc1 (stereo not drawn) [Compound 111],D (79-50)
